{"source": "patent US8067243B2", "about": "(priority 2008, dated 2011)", "key": {"[1]": {"conditions": "in vivo; cited from earlier work"}, "[2]": {"conditions": "human, in vivo"}, "[3]": {"conditions": "in vivo, cited from earlier work"}, "[4]": {"conditions": "drug screen, cited from earlier work"}}, "note": "Like-named read-outs stand apart in the source and are kept apart here.", "data": [{"smiles": "COc1ccc2c3c1O[C@H]1C(=O)CC[C@@]4(O)[C@@H](C2)N(C)CC[C@]314", "note": "[Oxycodone]", "values": [{"measurement": "Retention Time", "setting": "[1]", "result": "1 to 3", "unit": "days"}, {"measurement": "Retention Time (SR)", "setting": "[1]", "result": "(SR 2-4 days)"}, {"measurement": "detection of free drug in urine by LC/MS/MS after administration", "setting": "[1]", "result": "up to 3 days"}, {"measurement": "detection of free drug in urine by LC/MS/MS after slow-release dosage form", "setting": "[1]", "result": "up to 4 days"}, {"measurement": "Result (urine concentration)", "setting": "[2]", "result": 544, "unit": "ng/mL"}, {"measurement": "oral dose eliminated in urine as oxymorphone", "setting": "[3]; po", "result": "about 14%"}, {"measurement": "oral dose eliminated in urine as total oxycodone", "setting": "[3]; po", "result": "approximately 60%"}]}, {"smiles": "CCOC(=O)C1(c2ccccc2)CCN(C)CC1", "note": "[Meperidine]", "values": [{"measurement": "Retention Time", "setting": "[1]", "result": "1 to 2", "unit": "days"}, {"measurement": "plasma half-life", "setting": "[3]", "result": 3, "unit": "h"}]}, {"smiles": "CCO", "note": "[Ethanol]", "values": [{"measurement": "Retention Time", "setting": "[4]", "result": "0.083 to 0.583", "unit": "days"}]}, {"smiles": "c1ccc(C2(N3CCCCC3)CCCCC2)cc1", "note": "[Phencyclidine]", "values": [{"measurement": "Retention Time, Chronic Use", "setting": "[4]; chronic use", "result": "up to 30 days"}, {"measurement": "Retention Time", "setting": "[4]", "result": 8, "unit": "days"}]}, {"smiles": "CN1CC[C@]23c4c5ccc(O)c4O[C@H]2C(=O)CC[C@@]3(O)[C@H]1C5", "note": "[Oxymorphone]", "values": [{"measurement": "Retention Time", "setting": "[1]", "result": "1 to 3", "unit": "days"}, {"measurement": "Retention Time (SR)", "setting": "[1]", "result": "(SR 2-4 days)"}, {"measurement": "detection of free drug in urine by LC/MS/MS after administration", "setting": "[1]", "result": "up to 3 days"}, {"measurement": "detection of free drug in urine by LC/MS/MS after slow-release dosage form", "setting": "[1]", "result": "up to 4 days"}, {"measurement": "Result (urine concentration)", "setting": "[2]", "result": 223, "unit": "ng/mL"}, {"measurement": "dose excreted in urine", "setting": "[3]", "result": "About 49%"}]}, {"smiles": "C=CCC1(C(C)CCC)C(=O)NC(=O)NC1=O", "note": "(centres unmarked) [Secobarbital]", "values": [{"measurement": "Retention Time", "setting": "[4]", "result": "0.042 to 1", "unit": "days"}]}, {"smiles": "CCCC(C)C1(CC)C(=O)NC(=O)NC1=O", "note": "(centres unmarked) [Pentobarbital]", "values": [{"measurement": "Retention Time", "setting": "[4]", "result": "0.042 to 1", "unit": "days"}]}, {"smiles": "CC(N)Cc1ccccc1", "note": "(centres unmarked) [Amphetamine]", "values": [{"measurement": "Retention Time", "setting": "[4]", "result": "1 to 2", "unit": "days"}]}, {"smiles": "C=CCC1(C(C)C)C(=O)NC(=O)NC1=O", "note": "[Aprobarbital]", "values": [{"measurement": "Retention Time", "setting": "[4]", "result": "1 to 7", "unit": "days"}]}, {"smiles": "CCC(C)C1(CC)C(=O)NC(=O)NC1=O", "note": "(centres unmarked) [Butabarbital]", "values": [{"measurement": "Retention Time", "setting": "[4]", "result": "1 to 7", "unit": "days"}]}, {"smiles": "C=CCC1(CC(C)C)C(=O)NC(=O)NC1=O", "note": "[Butalbital]", "values": [{"measurement": "Retention Time", "setting": "[4]", "result": "0.042 to 2", "unit": "days"}]}, {"smiles": "CCC1(CCC(C)C)C(=O)NC(=O)NC1=O", "note": "[Amobarbital]", "values": [{"measurement": "Retention Time", "setting": "[4]", "result": "1 to 7", "unit": "days"}]}, {"smiles": "COc1ccc2c3c1O[C@H]1[C@@H](O)C=C[C@H]4[C@@H](C2)N(C)CC[C@@]341", "note": "[Codeine]", "values": [{"measurement": "Result (urine concentration)", "setting": "[2]", "result": 327, "unit": "ng/mL"}, {"measurement": "time to peak plasma concentration", "setting": "[3]; po", "result": "one"}]}, {"smiles": "CN1[C@H]2CC[C@@H]1[C@@H](C(=O)O)[C@@H](OC(=O)c1ccccc1)C2", "note": "[Cocaine metabolite]", "values": [{"measurement": "Retention Time", "setting": "[4]", "result": "1 to 2", "unit": "days"}]}, {"smiles": "CC(=O)Oc1ccc2c3c1O[C@H]1[C@@H](OC(C)=O)C=C[C@H]4[C@@H](C2)N(C)CC[C@@]341", "note": "[heroin, diacetyl morphine]", "values": [{"measurement": "heroin dose excreted as morphine-3-glucuronide", "setting": "[3]", "result": "Approximately 42%"}]}, {"smiles": "CCOC(=O)C1(c2ccccc2)CCNCC1", "note": "[Normeperidine]", "values": [{"measurement": "plasma half-life", "setting": "[3]", "result": 20, "unit": "h"}]}, {"smiles": "CN1CC[C@]23c4c5ccc(O)c4O[C@H]2[C@@H](O)C=C[C@H]3[C@H]1C5", "note": "[Morphine]", "values": [{"measurement": "Result (urine concentration)", "setting": "[2]", "result": 104, "unit": "ng/mL"}, {"measurement": "dose excreted in urine as morphine-3-glucuronide", "setting": "[3]", "result": 70, "unit": "%"}]}, {"smiles": "COc1ccc2c3c1O[C@H]1C(=O)CC[C@H]4[C@@H](C2)N(C)CC[C@]314", "note": "[Hydrocodone]", "values": [{"measurement": "Retention Time", "setting": "[1]", "result": "1 to 3", "unit": "days"}, {"measurement": "detection of free drug in urine by LC/MS/MS after administration", "setting": "[1]", "result": 3, "unit": "days"}, {"measurement": "Result (urine concentration)", "setting": "[2]", "result": 864, "unit": "ng/mL"}]}]}
